Test [1] has as its system Human rhinovirus sp. The experiment in a line: Antiviral activity against rhinoviral 2 serotype in a plaque inhibition assay using monolayers of M-HeLa cells. The format is functional, organism-based.
Test [2] deals with Human rhinovirus sp. In words: Antiviral activity against rhinoviral 8 serotype in a plaque inhibition assay using monolayers of M-HeLa cells. In kind it is functional, organism-based.
Test [3] deals with Human rhinovirus sp. The experiment in a line: Antiviral activity against rhinoviral 14 serotype in a plaque inhibition assay using monolayers of M-HeLa cells. In kind it is functional, organism-based.
Test [4] has as its system Human rhinovirus sp. In words: Antiviral activity against rhinoviral 16 serotype in a plaque inhibition assay using monolayers of M-HeLa cells. In kind it is functional, organism-based.
Test [5] has as its system Human rhinovirus sp. In words: Antiviral activity against rhinoviral 12 serotype in a plaque inhibition assay using monolayers of M-HeLa cells. The format is functional, organism-based.
Test [6] deals with Human rhinovirus sp. The experiment in a line: Antiviral activity against rhinoviral-18 serotype in a plaque inhibition assay using monolayers of M-HeLa cells. In kind it is functional, organism-based.
Test [7] relates to Human rhinovirus sp. In words: Antiviral activity against rhinoviral-19 serotype in a plaque inhibition assay using monolayers of M-HeLa cells. In kind it is functional, organism-based.
Test [8] relates to Human rhinovirus sp. In words: Antiviral activity against rhinoviral-1A serotype in a plaque inhibition assay using monolayers of M-HeLa cells. In kind it is functional, organism-based.
The subject of test [9] is Human rhinovirus sp. The experiment in a line: Antiviral activity against rhinoviral-1B serotype in a plaque inhibition assay using monolayers of M-HeLa cells. In kind it is functional, organism-based.
For test [10], the system named is Human rhinovirus sp. The experiment in a line: Percent inhibitory activity at 8 uM against rhinoviral 13 serotype in a plaque inhibition assay using monolayers of M-HeLa cells. In kind it is functional.
Test [11] relates to Human rhinovirus sp. In words: Percent inhibitory activity at 8 uM against rhinoviral 15 serotype in a plaque inhibition assay using monolayers of M-HeLa cells. The format is functional.
For test [12], the system named is Human rhinovirus sp. In words: Percent inhibitory activity at 8 uM against rhinoviral 21 serotype in a plaque inhibition assay using monolayers of M-HeLa cells. In kind it is functional.
Test [13] concerns Human rhinovirus sp. The experiment in a line: Percent inhibitory activity at 8 uM against rhinoviral 29 serotype in a plaque inhibition assay using monolayers of M-HeLa cells. The format is functional.
Test [14] deals with Human rhinovirus sp. The experiment in a line: Percent inhibitory activity at 8 uM against rhinoviral 3 serotype in a plaque inhibition assay using monolayers of M-HeLa cells. In kind it is functional.
Test [15] has as its system Human rhinovirus sp. In words: Percent inhibitory activity at 8 uM against rhinoviral 4 serotype in a plaque inhibition assay using monolayers of M-HeLa cells. The format is functional.
Test [16] deals with Human rhinovirus sp. In words: Antiviral activity against rhinoviral 5 serotype in a plaque inhibition assay using monolayers of M-HeLa cells. In kind it is functional, organism-based.
Test [17] concerns Human rhinovirus sp. The experiment in a line: Antiviral activity against rhinoviral 9 serotype in a plaque inhibition assay using monolayers of M-HeLa cells. The format is functional, organism-based.
Test [18] has as its system Human rhinovirus sp. In words: Percent inhibitory activity at 8 uM against rhinoviral 30 serotype in a plaque inhibition assay using monolayers of M-HeLa cells. In kind it is functional.
The test system of test [19] is Human rhinovirus sp. The experiment in a line: Antiviral activity against rhinoviral 31 serotype in a plaque inhibition assay using monolayers of M-HeLa cells. In kind it is functional, organism-based.
The test system of test [20] is Human rhinovirus sp. The experiment in a line: Antiviral activity against rhinoviral 18 serotype in a plaque inhibition assay using monolayers of M-HeLa cells. The format is functional, organism-based.
For test [21], the system named is Human rhinovirus sp. In words: Antiviral activity against rhinoviral 29 serotype in a plaque inhibition assay using monolayers of M-HeLa cells. The format is functional, organism-based.
Test [22] deals with Human rhinovirus sp. In words: Antiviral activity against rhinoviral 30 serotype in a plaque inhibition assay using monolayers of M-HeLa cells. In kind it is functional, organism-based.
Test [23] concerns Human rhinovirus sp. The experiment in a line: Antiviral activity against rhinoviral 4 serotype in a plaque inhibition assay using monolayers of M-HeLa cells. The format is functional, organism-based.
Test [24] concerns Human rhinovirus sp. The experiment in a line: Antiviral activity against rhinoviral 15 serotype in a plaque inhibition assay using monolayers of M-HeLa cells. In kind it is functional, organism-based.
For test [25], the system named is Human rhinovirus sp. The experiment in a line: Percent inhibitory activity at 8 uM against rhinoviral 19s erotype in a plaque inhibition assay using monolayers of M-HeLa cells. In kind it is functional.
Test [26] has as its system Human rhinovirus sp. In words: Percent inhibitory activity at 8 uM against rhinoviral 31 serotype in a plaque inhibition assay using monolayers of M-HeLa cells. The format is functional.
Test [27] has as its system Human rhinovirus sp. The experiment in a line: Percent inhibitory activity at 8 uM against rhinoviral 5 serotype in a plaque inhibition assay using monolayers of M-HeLa cells. In kind it is functional.
Test [28] is described as follows: Percent inhibitory activity at 8 uM against rhinoviral 2 serotype in a plaque inhibition assay using monolayers of M-HeLa cells. In kind it is functional, Homo sapiens.
For test [29], the system named is Human rhinovirus sp. The experiment in a line: Antiviral activity against rhinoviral 19 serotype in a plaque inhibition assay using monolayers of M-HeLa cells. In kind it is functional, organism-based.
Test [30] can be described thus: Antiviral activity against rhinoviral 13 serotype in a plaque inhibition assay using monolayers of M-HeLa cells. In kind it is functional, cell-based. Particulars: Homo sapiens.
Test [31] relates to Human rhinovirus sp. In words: Antiviral activity against rhinoviral 3 serotype in a plaque inhibition assay using monolayers of M-HeLa cells. The format is functional, organism-based.
Test [32] deals with Human rhinovirus sp. The experiment in a line: Percent inhibitory activity at 8 uM against rhinoviral 14 serotype in a plaque inhibition assay using monolayers of M-HeLa cells. In kind it is functional.
Test [33] can be described thus: Percent inhibitory activity at 8 uM against rhinoviral 8 serotype in a plaque inhibition assay using monolayers of M-HeLa cells. The format is functional, Homo sapiens.

In the case of `Cc1cc(Cl)ccc1Cn1cnc2c(N(C)C)nc(C(F)(F)F)nc21`, the IC50 (commonly the concentration that inhibits the measured activity by half) in [1] is 9 µM; in test [2], 9.5 µM; in [3] it was 9 µM; in test [4], 1.9 µM; in [5], 7.8 µM; in test [6] it was 10 µM. Besides, the IC50 in test [7] was 10 µM; in test [8], 0.82 µM; in test [9] it was 0.12 µM; in test [16], more than 8 µM; in test [17], 2 µM; in [19], 12 µM. Moreover, the Inhibition (as a rule, the relative decrease from the control value, in per cent) in test [10] came out at 23%; in test [11], 11%; in test [12] it was 22%; in [13], 32%; in test [14], 29%; in test [15] it was 25%. Moreover, in [18], the Inhibition came to 28%.

`CN(C)c1nc(C(F)(F)F)nc2c1ncn2Cc1ccc(F)cc1`: the IC50 was 8.9 µM in test [20]; 4 µM in [21]; 9 µM in test [22]; 3.8 µM in [23]; 8 µM in [2]; 7.1 µM in test [3]. Besides, the IC50 in [24] was 8.7 µM; in test [4] it was 1.3 µM; in [5], 8 µM; in [8], 1.3 µM; in test [9], 0.05 µM; in test [17], 0.87 µM. Also, the Inhibition was found to be 42% in [10]; 22% in [25]; 34% in test [12]; 47% in [26]; 35% in [14]; 11% in [27]. The Inhibition in [28] stood at 27%.

Turning to `Cc1ccc(Cn2cnc3c(N(C)C)nc(C(F)(F)F)nc32)cc1C`, the IC50 in [20] amounted to 8.2 µM; in test [29], 7.1 µM; in test [21], 5 µM; in test [1] it was 5 µM; in [22], 8.1 µM; in test [23] it was 6 µM. In addition, the IC50 in test [2] was 5.1 µM; in test [30] it was more than 8 µM; in [3] it was 6.6 µM; in [24], 2 µM; in test [4], 0.78 µM; in [5], 4 µM. The IC50 in test [8] was 1.7 µM; in test [9], 0.17 µM; in test [16], more than 8 µM; in test [17] it was 0.65 µM; in test [19], 13 µM. Moreover, the Inhibition came out at 16% in [12] and 39% in test [14].

Take `Cc1ccccc1Cn1cnc2c(N(C)C)nc(C(F)(F)F)nc21`: the IC50 in test [21] was found to be 6.2 µM; in [22] it was 9 µM; in [31] it was 7.5 µM; in test [4], 1.9 µM; in test [5] it was 6.5 µM; in test [6] it was 7.7 µM. Further, the IC50 turned out to be 8 µM in [8], 0.29 µM in [9] and 1.9 µM in [17]. For the same molecule, the Inhibition in test [10] turned out to be 33%; in [32], 31%; in [11], 14%; in test [25], 19%; in test [12], 18%; in [26], 47%. Also, the Inhibition in test [15] came out at 22%; in test [27] it was 40%; in test [33] it was 44%.

`CN(C)c1nc(C(F)(F)F)nc2c1ncn2Cc1ccc(Cl)c(N)c1`: the IC50 was found to be 6.5 µM in test [1]; 14 µM in test [31]; 7.2 µM in test [23]; 6.2 µM in test [2]; 7.1 µM in test [3]; 5.8 µM in test [24]. Further, the IC50 in [4] was 1.6 µM; in test [5], 5.2 µM; in test [6], 14 µM; in test [8] it was 2.4 µM; in test [9], 0.17 µM; in test [16], more than 8 µM. For the same molecule, half-maximal inhibition in test [17] (IC50) required 1.5 µM. For the same molecule, the Inhibition in test [10] is 18%; in test [25], 40%; in test [12] it was 10%; in test [13], 26%; in test [26], 29%; in [18], 34%.

The record behind these values is ChEMBL document CHEMBL1124634, “Synthesis and antirhinovirus activity of 6-(dimethylamino)-2-(trifluoromethyl)-9-(substituted benzyl)-9H-purines” (J Med Chem, 1989).
